Consider 2 substances from US9274100B2, “Method for optical measuring variations of cell membrane conductance” (OSPEDALE SAN RAFFAELE S.R.L., priority 2009, dated 2016).

The test system of test [1] is HeLa cells. Put plainly: Optical detection of changes in plasma membrane conductance induced by streptolysin-O (fast-VSD, electric current pulses, internal control). The class given is cell-based. The note with it: increasing streptolysin-O concentration (50, 100 and 150 units), hyperpolarising and depolarising responses. As to the method: (§1) Before the experiment, cells were washed with a Krebs-Ringer's solution buffered with HEPES (KRH; in mM: 150 NaCl, 5 KCl, 1.2 MgSO4, 1.2 KH2PO4, 2 CaCl2, 10 glucose, and 10 HEPES, pH 7.4) and incubated with […] di-4-ANEPPS, a fast-VSD (Invitrogen).
(§2) Conductance changes were monitored by measuring the change in fluorescence induced by electric current pulses, quantified as the difference between the mean of plateau values (either positive or negative, depending on the type of stimulus and geometry of the cell) and the mean of pre-stimulation values divided by the mean of pre-stimulation values, ΔF %. As detailed above, normalisation for the values prevailing before stimulation provided a correction for dye bleaching during the experiment, so that fluorescence changes produced by additional stimuli could be compared. […]
(§3) The responsivity to the molecule active on membrane permeability was determined according to two different protocols: • Estimation of conductance with internal control (responses, before and after exposure to the experimental treatment, measured on the same pixels). […]
(§4) Afterward, membrane potential changes evoked by current pulses of fixed intensity were calculated within the same subcellular regions identified by the functional mask after exposure to the experimental treatment. […]

Test [2] relates to HeLa cells. Put plainly: Optical detection of changes in membrane conductance induced by aspecific permeabilization (fast-VSD, electric current pulses, internal control). The class given is cell-based. As to conditions: measures up to four minutes after administration, conductance normalised to value at t=0. On the procedure: as §1, §2, §3, §4

For the substance “streptolysin-O: bacterial protein able to insert into the eukaryotic plasma membrane where it forms a non selective ionic channel”, the “Fast-VSD fluorescence variation during unipolar square pulse” value in the test with HeLa cells [1] was “clear reduction in the fluorescence variation”. With triton X-100, the “effect on membrane conductance” value in the test on HeLa cells [2] (0.05% volume) is listed as “negligible effect”; in the test on HeLa cells [2] (0.5% volume), “marked drop”.
